The target of experiment [1] is T1, Alpha-ketoglutarate-dependent dioxygenase FTO (Homo sapiens, UniProt Q9C0B1). The experiment in a line: Inhibition of FTO (unknown origin) mediated m6A methylation by HPLC analysis.
Experiment [2] has as its system MONO-MAC-6. The experiment in a line: Antiproliferative activity against human MONO-MAC-6 cells. Type of experiment: functional, cell-based.
In experiment [3] the target is T1, Alpha-ketoglutarate-dependent dioxygenase FTO. The experiment in a line: Inhibition of full length human FTO expressed in Escherichia coli BL21(DE3) rosetta by HPLC analysis.
Experiment [4] shares this target. The experiment can be described thus: Displacement of dm6A-containing ssDNA from truncated N-terminal his-tagged human FTO (31 residues) mediated demethylation activity expressed in Escherichia coli BL21(DE3) using ssDNA (5'-ATTGTCA(dm6A)CAGCAGA-FAM-3') as substrate by fluorescence polarization assay. On the technique in general: In fluorescence polarisation assays a small probe gives low polarisation when free and higher when bound to something large.

For experiment [5] the target is unchanged.
Description: Inhibition of FTO (unknown origin) (31 to 505 residues) by LC/MS analysis

T1 sequence (Q9C0B1 whole entry): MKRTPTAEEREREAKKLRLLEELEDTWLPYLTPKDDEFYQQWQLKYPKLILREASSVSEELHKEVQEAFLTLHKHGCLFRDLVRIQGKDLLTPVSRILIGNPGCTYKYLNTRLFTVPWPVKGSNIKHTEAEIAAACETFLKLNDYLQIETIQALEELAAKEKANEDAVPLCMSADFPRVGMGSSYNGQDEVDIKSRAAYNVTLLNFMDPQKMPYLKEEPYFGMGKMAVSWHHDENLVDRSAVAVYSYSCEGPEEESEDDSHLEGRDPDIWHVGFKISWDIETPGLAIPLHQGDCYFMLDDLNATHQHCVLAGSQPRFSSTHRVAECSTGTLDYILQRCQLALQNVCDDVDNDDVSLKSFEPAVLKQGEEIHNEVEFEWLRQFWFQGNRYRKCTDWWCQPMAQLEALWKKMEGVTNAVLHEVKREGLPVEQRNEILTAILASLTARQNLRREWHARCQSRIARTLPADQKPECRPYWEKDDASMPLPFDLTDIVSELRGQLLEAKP

As to `Cc1noc(C)c1-c1cc(Cl)c(Nc2ccccc2C(=O)NO)c(Cl)c1`, the results for the half-inhibitory concentration (IC50) in experiment [1] and in experiment [2] were 2600 nM and 800 nM, respectively.

Take `O=C(O)c1ccnc(C(=O)NS(=O)(=O)c2ccc(C(F)(F)F)cc2)c1`: the IC50 in experiment [3] was 2600 nM. That is a single-digit micromolar value.

The molecule `Cc1ccc(Cl)c(Nc2ccccc2C(=O)O)c1Cl` [MECLOFENAMIC ACID] displayed a half-maximal inhibitory concentration (IC50) in experiment [4] of 17400 nM.

Regarding `C[C@@H]1C[C@H]2O[C@@H]2/C=C\C=C\C(=O)Cc2c(Cl)c(O)cc(O)c2C(=O)O1` [RADICICOL], inhibition in experiment [5] was half-maximal at 16000 nM (IC50).

Broadly, the IC50 is the concentration at which inhibition is half-maximal. A low value points to inhibition by little substance.
